Data reported in paper PMC7851449, “An extracellular lipase from Amycolatopsis mediterannei is a cutinase with plastic degrading activity” (Computational and Structural Biotechnology Journal, 2021).

Biological target: T1, AML (Amycolatopsis mediterranei lipase) (Amycolatopsis mediterranei, UniProt A0A0H3DES9)
T1 construct: gene AMED_7492; recombinant, pET-49b(+), E. coli BL21(DE3) cytosol; glutathione agarose, tag cut off with PreScission protease
Experiment: p-nitrophenyl ester hydrolysis assay, relative activity
Format: biochemical
Conditions: 50 mM Tris pH 7.5, 37 °C, 10 min, 20 mM substrate

T1 sequence (A0A0H3DES9 entry or part of it): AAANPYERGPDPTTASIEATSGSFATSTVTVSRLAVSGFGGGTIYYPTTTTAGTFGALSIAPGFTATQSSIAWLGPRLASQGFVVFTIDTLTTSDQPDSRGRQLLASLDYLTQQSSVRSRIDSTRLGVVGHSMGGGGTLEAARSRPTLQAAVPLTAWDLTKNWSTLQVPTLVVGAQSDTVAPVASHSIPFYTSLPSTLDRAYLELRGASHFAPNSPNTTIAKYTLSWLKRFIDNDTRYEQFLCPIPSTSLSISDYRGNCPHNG

Row | Compound | relative activity (%) | relative activity (%) (reference substrate for relative activity)
1 | CC(=O)Oc1ccc([N+](=O)[O-])cc1 [p-nitrophenyl acetate] | experimentally low activity of AML observed towards p-nitrophenyl acetate | 
2 | CCCCCCCC(=O)Oc1ccc([N+](=O)[O-])cc1 [p-nitrophenyl octanoate] |  | relative activity (%) was calculated using p-nitrophenyl octanoate (C-8) as the reference, highest activity, substrate
